From PMC11054282, “Structural Investigations on 2-Amidobenzimidazole Derivatives as New Inhibitors of Protein Kinase CK1 Delta” (Pharmaceuticals, 2024) come the findings set out here.

SMILES strings stand for the structures. Where “and” joins values, the source holds several entries; their conditions need not be identical. Equal values may be shown once.

One data set addresses T1, truncated CK1δ (Homo sapiens, UniProt P48730).
T1 construct: truncated CK1δ, recombinant human, GST-tagged, aa 1-294, Merck Millipore; GST; purchased Merck Millipore, Merck KGaA, Darmstadt, Germany
T1 sequence (P48730 1-294): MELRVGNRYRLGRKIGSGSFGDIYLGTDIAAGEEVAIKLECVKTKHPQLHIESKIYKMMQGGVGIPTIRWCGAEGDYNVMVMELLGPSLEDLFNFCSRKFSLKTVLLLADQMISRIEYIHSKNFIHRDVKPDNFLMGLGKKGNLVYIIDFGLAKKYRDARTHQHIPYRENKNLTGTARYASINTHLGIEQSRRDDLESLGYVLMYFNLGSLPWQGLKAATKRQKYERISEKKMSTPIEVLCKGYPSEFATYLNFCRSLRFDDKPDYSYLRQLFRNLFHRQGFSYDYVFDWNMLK
The experiment in a line: CK1δ luminescent kinase assay (Kinase Glo kit). The format is biochemical. As to conditions: for IC50: truncated recombinant human CK1δ (aa 1-294), casein substrate, 2 μM ATP, mean ± SE of three independent experiments in duplicate. As to the method:
The newly synthesized derivatives 1–32 were tested on truncated CK1δ using the luminescent kinase assay Kinase Glo® KIT (Promega Italy S.r.l., Milan, Italy), and the results are reported in Table 1 and Table 2. Derivatives were tested at a fixed dose of 40 μM; then, those showing a residual kinase activity percentage lower than 50% were tested at 10 μM.
The inhibitory activity of synthesized compounds on CK1δ has been carried out following a procedure for a luminescence-based assay (KinaseGlo® kit, Promega Italy Srl, Milan, Italy) already reported in the literature. Luminescent assays were performed in white 96-well plates in a 40 μL final volume. The buffer used is a milliq water solution of 50 mM HEPES (pH 7.5), 1 mM EDTA, 1 mM EGTA, and 15 mM MgCl2. In a typical assay, 10 μL of inhibitor solution (desired concentrations were obtained by diluting in buffer a starting 10 mM solution in DMSO) and 10 μL of enzyme solution (truncated CK1δ, recombinant human, GST-tagged, aa 1-294, Merck Millipore, Merck KGaA, Darmstadt, Germany) were added to the well, followed by 20 μL of assay buffer containing casein substrate (casein solution from bovine milk, 5% in water, Sigma-Aldrich, Merck KGaA, Darmstadt, Germany) and ATP, at a final concentration of 0.05% and 2 μM, respectively. The final enzyme concentration was 6.5 nM. […] After 60 min of incubation at 30 °C, the enzymatic reactions were stopped with the addition of 40 μL of KinaseGlo reagent (Promega Italy Srl, Milan, Italy). The luminescence signal (relative light unit, RLU) was recorded after 10 min at 25 °C using a Tecan Infinite M100. […] IC50 values were evaluated using ten different inhibitor concentrations ranging from 100 to 0.026 μM. Data were analyzed using Excel and GraphPad Prism software (version 8.0).
For orientation: Kinase-Glo measures the ATP left after a reaction by luminescence.

On to `O=C(Cn1ccc(C(=O)Nc2nc3ccccc3[nH]2)n1)c1ccccc1` [Compound 1, N-(1H-Benzimidazol-2yl)-1-(2-oxo-2-phenylethyl)-1H-pyrazole-3-carboxamide], for which the melting point (as a rule, the temperature, or range, at which the solid turns liquid) was in the range of 220 to 221 °C. Also, the IC50 (commonly the concentration that gives 50% inhibition) on truncated CK1δ was over 40 µM.

Turning to `Cc1ccc2[nH]c(NC(=O)c3ccn(CC(=O)c4ccccc4)n3)nc2c1` [Compound 2, N-(5(6)-Methyl-1H-benzimidazol-2yl)-1-(2-oxo-2-phenylethyl)-1H-pyrazole-3-carboxamide], the melting point is 199 to 200 °C. Besides, the IC50 on truncated CK1δ is < 15 µM and 14.6 µM.

With `O=C(Cn1ccc(C(=O)Nc2nc3cc(Cl)ccc3[nH]2)n1)c1ccccc1` [Compound 3, N-(5(6)-Chloro-1H-benzimidazol-2yl)-1-(2-oxo-2-phenylethyl)-1H-pyrazole-3-carboxamide], the melting point fell in the range of 200 to 203 °C. On truncated CK1δ, the IC50 was < 15 µM and 1.8 µM.

`COc1ccccc1C(=O)Cn1ccc(C(=O)Nc2nc3ccccc3[nH]2)n1` [Compound 4, N-(1H-Benzimidazol-2yl)-1-(2-(2-methoxyphenyl)-2-oxoethyl)-1H-pyrazole-3-carboxamide] registered a melting point of 168 to 170 °C. Further, the IC50 at truncated CK1δ is over 40 µM.

`COc1ccccc1C(=O)Cn1ccc(C(=O)Nc2nc3cc(C)ccc3[nH]2)n1` [Compound 5, N-(5(6)-Methyl-1H-benzimidazol-2yl)-1-(2-(2-methoxyphenyl)-2-oxoethyl)-1H-pyrazole-3-carboxamide] yielded a melting point of 201 to 203 °C. In addition, the IC50 on truncated CK1δ was over 40 µM.

The molecule `COc1ccccc1C(=O)Cn1ccc(C(=O)Nc2nc3cc(Cl)ccc3[nH]2)n1` [Compound 6, N-(5(6)-Chloro-1H-benzimidazol-2yl)-1-(2-(2-methoxyphenyl)-2-oxoethyl)-1H-pyrazole-3-carboxamide] had a melting point of 219 to 221 °C. Also, the IC50 on truncated CK1δ is < 15 µM and 13.2 µM.

Turning to `O=C(Nc1nc2ccccc2[nH]1)c1cc[nH]n1` [Compound 7, N-(1H-Benzimidazol-2-yl)-1H-pyrazole-3(5)-carboxamide], the melting point is over 300 °C. Besides, at truncated CK1δ, the IC50 is over 40 µM.

In turn, `Cc1ccc2[nH]c(NC(=O)c3cc[nH]n3)nc2c1` [Compound 8, N-(5(6)-Methyl-1H-benzimidazol-2-yl)-1H-pyrazole-3(5)-carboxamide] gave a melting point of over 300 °C. Besides, at truncated CK1δ, the IC50 was over 40 µM.

Turning to `O=C(Nc1nc2cc(Cl)ccc2[nH]1)c1cc[nH]n1` [Compound 9, N-(5(6)-Chloro-1H-benzimidazol-2-yl)-1H-pyrazole-3(5)-carboxamide], the melting point is over 300 °C. The 50% inhibitory concentration (IC50) on truncated CK1δ was over 40 µM.

As to `O=C(Nc1nc2cc(C(F)(F)F)ccc2[nH]1)c1cc[nH]n1` [Compound 10, 1H-Pyrazole-N-(5(6)-trifluoromethyl-1H-benzimidazol-2-yl)-3(5)-carboxamide], the melting point was over 300 °C. Also, the IC50 on truncated CK1δ was over 40 µM.

For the molecule `COc1ccc2[nH]c(NC(=O)c3cc[nH]n3)nc2c1` [Compound 11, N-(5(6)-Methoxy-1H-benzimidazol-2-yl)-1H-pyrazole-3(5)-carboxamide], the melting point is over 300 °C. The IC50 at truncated CK1δ was over 40 µM.

For `O=C(Nc1nc2cc([N+](=O)[O-])ccc2[nH]1)c1cc[nH]n1` [Compound 12, N-(5(6)-Nitro-1H-benzimidazol-2-yl)-1H-pyrazole-3(5)-carboxamide], the melting point is over 300 °C. Besides, the IC50 on truncated CK1δ was over 40 µM.

`O=C(Cc1cc[nH]n1)Nc1nc2ccccc2[nH]1` [Compound 13, N-(1H-benzimidazol-2-yl)-2-(1H-pyrazol-3(5)-yl)acetamide] yielded a melting point of 295 to 297 °C. In addition, on truncated CK1δ, the IC50 is 4.21 ± 1.92 µM.

Regarding `Cc1ccc2[nH]c(NC(=O)Cc3cc[nH]n3)nc2c1` [Compound 14, N-(5(6)-Methyl-1H-benzimidazol-2-yl)-2-(1H-pyrazol-3(5)-yl)acetamide], the melting point was 257 °C (dec.). For the same molecule, the IC50 on truncated CK1δ amounted to 1.64 ± 0.31 µM.

Turning to `O=C(Cc1cc[nH]n1)Nc1nc2cc(Cl)ccc2[nH]1` [Compound 15, N-(5(6)-Cloro-1H-benzimidazol-2-yl)-2-(1H-pyrazol-3(5)-yl)acetamide], the melting point fell in the range of 286 to 288 °C. Moreover, on truncated CK1δ, the IC50 was 0.485 ± 0.31 µM.

In turn, `O=C(Cc1cc[nH]n1)Nc1nc2cc(C(F)(F)F)ccc2[nH]1` [Compound 16, 2-(1H-Pyrazol-3(5)-yl)-N-(5(6)-trifluoromethyl-1H-benzimidazol-2-yl)acetamide] displayed a melting point of 275 to 277 °C. The IC50 at truncated CK1δ was determined as 1.74 ± 0.32 µM.

`COc1ccc2[nH]c(NC(=O)Cc3cc[nH]n3)nc2c1` [Compound 17, N-(5(6)-Methoxy-1H-benzimidazol-2-yl)-2-(1H-pyrazol-3(5)-yl)acetamide] showed a melting point of 239 to 240 °C. Moreover, the concentration for half-maximal inhibition (IC50) at truncated CK1δ was determined as 6.27 ± 0.95 µM.

Turning to `O=C(Cc1cc[nH]n1)Nc1nc2cc([N+](=O)[O-])ccc2[nH]1` [Compound 18, N-(5(6)-Nitro-1H-benzimidazol-2-yl)(1H-pyrazol-3(5)-yl)-2-acetamide], the melting point fell in the range of 272 to 274 °C. The IC50 at truncated CK1δ turned out to be 0.12 ± 0.083 µM.

For the molecule `O=C(Cc1cc[nH]n1)Nc1nc2c([N+](=O)[O-])cccc2[nH]1` [Compound 19, N-(4(7)-Nitro-1H-benzimidazol-2-yl)(1H-pyrazol-3(5)-yl)-2-acetamide], the melting point fell in the range of 280 to 282 °C. On truncated CK1δ (19 (4-NO2) versus 18 (5-NO2)), the “fold less potent than the regioisomer 18 (CK1δ)” value is 10 fold. The IC50 on truncated CK1δ worked out at 1.22 ± 0.23 µM.

Take `CC(C)(C)c1ccc2[nH]c(NC(=O)Cc3cc[nH]n3)nc2c1` [Compound 20, N-(5(6)-terButyl-1H-benzimidazol-2-yl)(1H-pyrazol-3(5)-yl)-2-acetamide]: the IC50 at truncated CK1δ stood at 1 ± 0.18 µM.

With `O=C(Cc1cc[nH]n1)Nc1nc2cc(OC(F)(F)F)ccc2[nH]1` [Compound 21, 2-(1H-Pyrazol-3(5)-yl)-N-(5(6)-trifluoromethoxy-1H-benzimidazol-2-yl)acetamide], the melting point fell in the range of 270 to 274 °C. Also, the IC50 on truncated CK1δ turned out to be 5.99 ± 0.87 µM.

As to `O=C(Cc1cc[nH]n1)Nc1nc2cc(Cl)c(Cl)cc2[nH]1` [Compound 22, N-(5,6-Dichloro-1H-benzimidazol-2-yl)-2-(1H-pyrazol-3(5)-yl)acetamide], the melting point was over 300 °C. Further, at truncated CK1δ, the IC50 was 0.98 ± 0.35 µM.

In turn, `N#Cc1ccc2[nH]c(NC(=O)Cc3cc[nH]n3)nc2c1` [Compound 23, N-(5(6)-Cyano-1H-benzimidazol-2-yl)(1H-pyrazol-(3)5-yl)-2-acetamide] yielded a melting point of 267 to 268 °C. Also, the IC50 on truncated CK1δ turned out to be 0.0986 ± 0.0394 µM.

On to `NC(=O)c1ccc2[nH]c(NC(=O)Cc3cc[nH]n3)nc2c1` [Compound 24], for which the melting point is 290 to 292 °C. In addition, the IC50 on truncated CK1δ was 2.53 ± 0.38 µM.

Take `CC(=O)Nc1ccc2[nH]c(NC(=O)Cc3cc[nH]n3)nc2c1` [Compound 27, N-(5(6)-Acetamido-1H-benzimidazol-2-yl)(1H-pyrazol-3(5)-yl)acetamide]: at truncated CK1δ, the half-maximal inhibitory concentration (IC50) is over 40 µM.

In the case of `Cn1c(NC(=O)Cc2cc[nH]n2)nc2ccc(Cl)cc21` [Compound 32, N-(6-Chloro-1-methyl-benzimidazol-2-yl)(1H-pyrazol-3(5)-yl)acetamide], the IC50 on truncated CK1δ is 20.1 ± 7.3 µM.
